Values joined by “and” are separate entries in the source; they are usually repeats but may differ in a detail not shown here. Equal entries are not always repeated. Structures can show the parent of a compound that is named as a salt. Where two headings read alike, the source gives them in different places. Marks after values point to notes of the source that are not given here. Values belong to the compound of their own block, whether it stands above or below them.
Legend:
Type in all cases: physicochemical
[1] = Crystal morphology assessed by microscopy
[2] = Moisture sorption isotherm (DVS); settings: 25° C.; as the relative humidity decreased below 10%
Procedure: A study was conducted to evaluate the moisture sorption isotherms of atrasentan hemi-sulfate salt (1:1 stoichiometry), monohydrate, and atrasentan S-mandelate salt (1:1 stoichiometry), anhydrate. A sample (about 5 mg to about 20 mg) of the powder to be tested was loaded onto the tared pan of a DVS Advantage dynamic gravimetric water sorption analyzer (Surface Measurement Systems Ltd, Alperton, United Kingdom). The moisture sorption isotherm for each sample was collected at 10% relative humidity intervals as the relative humidity was adjusted in the following manner: (a) 0% to 90% to 0% to 90% to 40% for the hemi-sulfate salt, and (b) 0% to 90% to 0% for the S-mandelate salt. For each step, the dm/dt criteria were 0.001% over 5 minutes with a minimum dm/dt time of 30 minutes and a maximum dm/dt of 120 minutes. Data was collected isothermally at 25° C. with a nitrogen flow rate of […]. The sample was maintained at 30% relative humidity and analyzed by PXRD. The moisture sorption isotherms generated for the hemi-sulfate and S-mandelate salt samples are shown in FIG. 6-A and FIG. 6-B, respectively.

[3] = Intrinsic dissolution rate as a function of chloride ion concentration; settings: for IDR (intrinsic dissolution rate): pH 2.0 phosphate buffer, 37° C., 50 rpm; for linear regression intercept a of IDR = a + b × [Cl−] / linear regression slope b of IDR = a + b × [Cl−]: pH 2.0, [Cl−] 0 to 0.17 M
Procedure: (§1) About 100 mg of the sample tested was prepared by compressing the sample in a stainless steel die under 1100 pounds force with a dwell time of one minute to form a pellet. The die (diameter: 0.373 inch, area: 0.704 cm^2) containing the pellet was submerged in 250 mL of a phosphate buffer dissolution test medium having a pH of 2.0 and a chloride ion concentration of 0 M, 0.017 M, or 0.17 M. The medium was stirred by a paddle at 50 rpm and maintained at 37° C. To measure the concentration of the sample material in test medium, a fiber optic dip probe (μDiss Profile, pION
Inc) was used to monitor the UV absorbance as a function of time. The measured data are reported in Table 13-A below and are shown graphically in FIG. 5.
The intrinsic dissolution data reported in Table 13-A were further evaluated using linear regression analysis.

[4] = Oxidative stability (urea-H2O2 co-crystal, HPLC); settings: for RECOVERED (%): solid exposed to urea-H2O2 co-crystal, 40° C., HPLC, individual samples 1-3; for RECOVERED (%) / AVERAGE (%) recovered / AVERAGE % (NORMALIZED): seven days; for AVERAGE (%) recovered / AVERAGE % (NORMALIZED): urea-H2O2, 40° C.; for AVERAGE (%) recovered: mean of samples 1-3; for AVERAGE % (NORMALIZED): sample average normalized to freezer blank average
Procedure: About 1 mg of each solid was placed in a 4 mL glass vial and about 10 mg of urea-H2O2 co-crystal was placed in another 4 mL vial. The two vials then were connected by a connector (Kontes connector, 13-425X13-425, apt NO 747205-1313) and left in an oven at 40° C. for seven days. Blank samples were prepared by placing about 1 mg of each compound in a 4 mL vial and then storing the vial in a freezer at about −20° C. for the same period of time. The oven samples and freezer blanks were analyzed at the same time by HPLC. The measured data are reported in Table II-B below and the normalized data from Table II-B are shown in a bar chart in FIG. 3.

[5] = Morphology and particle size distribution of the unmilled samples; settings: for PARTICLE SIZE DISTRIBUTION D10 / PARTICLE SIZE DISTRIBUTION D50 / PARTICLE SIZE DISTRIBUTION D90: unmilled; for MORPHOLOGY: unmilled sample used for density measurement
[6] = Bulk density and tap density (USP <616>); settings: unmilled; USP <616> Method I, 100 mL cylinder
Procedure: Bulk and tap density are measured following United States Pharmacopeia and National Formulary guidelines (USP <616>). Approximately 60 mL of each sample is added into a 100 mL graduated cylinder. The powder is carefully leveled without compacting, and the volume is read directly from the cylinder and used to calculate the bulk density according to the relationship: mass/volume. The cylinder containing the powder sample is then mechanically tapped using a VanKel Tap Density Tester (Model 50-1200, Varian, Inc., Palo Alto, Calif.) until there is no change in volume. The volume of the sample is then read and used in the calculation of tap density.
Bulk density and tap density were measured for samples of the following materials: (i) unmilled atrasentan hydrochloride salt having the morphology and particle size distribution listed below in Table 10; and (ii) unmilled atrasentan mandelate salt having the morphology and particle size distribution listed below in Table 10. […] Bulk density was measured in accordance with Bulk Density, Method I of United States Pharmacopeia and National Formulary Guidelines (USP <616>) except that a 100 mL cylinder was filled with the sample for the testing. Tap density was measured in accordance with Tapped Density, Method I of United States Pharmacopeia and National Formulary guidelines (USP <616>) except that a 100 mL cylinder was filled with the sample for the testing.

[7] = Intrinsic dissolution rate as a function of pH; settings: for IDR (intrinsic dissolution rate): 37° C., 50 rpm, single runs
Procedure: as §1, with “of 2.0, 5.0,” for “of 2.0 and a chloride ion concentration of 0 M, 0.017 M,”, “or 7.4.” for “or 0.17 M.”, “in the” for “in test”, “pION Inc) was used to monitor the UV absorbance as a function of time. The measured data are reported in Table 12-A below and are shown graphically in FIG. 4.” for “pION”

Compound: CCCCN(CCCC)C(=O)CN1CC(c2ccc3c(c2)OCO3)C(C(=O)O)C1c1ccc(OC)cc1.O.O=S(=O)(O)O (stereo not drawn)
- CRYSTAL MORPHOLOGY [1]: Needle
- solid form change during moisture sorption isotherm [2]: partial conversion from the hydrate form to the anhydrate form

Compound: Mandelate
- CRYSTAL MORPHOLOGY [1]: Prism
- IDR (intrinsic dissolution rate) ([3]; [Cl−] 0.0 M): 1.0 × 10^−1 (n = 1) mg/min/cm^2
- IDR (intrinsic dissolution rate) ([3]; [Cl−] 0.017 M): 1.0 × 10^−1 (n = 1) mg/min/cm^2
- IDR (intrinsic dissolution rate) ([3]; [Cl−] 0.17 M): 8.3 × 10^−2 (n = 3)** mg/min/cm^2
- sensitivity of intrinsic dissolution rate to chloride ion concentration compared with hydrochloride salt ([3]; linear regression slopes): less sensitive to chloride ion concentration
- linear regression intercept a of IDR = a + b × [Cl−] [3]: a1 = 0.1035
- linear regression slope b of IDR = a + b × [Cl−] [3]: b1 = −0.1222
- oxidative stability compared with atrasentan parent and hydrochloride salt ([4]; ANOVA of sample recovery proportion): greater oxidative stability
- RECOVERED (%) [4]: 82.40% and 80.67% and 83.11%
- AVERAGE (%) recovered [4]: 79.58%
- AVERAGE % (NORMALIZED) [4]: 99.30%
- PARTICLE SIZE DISTRIBUTION D10 [5]: 16 μm
- PARTICLE SIZE DISTRIBUTION D50 [5]: 49 μm
- PARTICLE SIZE DISTRIBUTION D90 [5]: 141 μm
- MORPHOLOGY [5]: Prismatic
- BULK DENSITY [6]: 0.25 g/mL
- TAP DENSITY [6]: 0.40 g/mL
- IDR (intrinsic dissolution rate) ([7]; pH 5.0 phosphate buffer): 2.1 × 10^−2 mg/min/cm^2 and 1.8 × 10^−2 mg/min/cm^2
- IDR (intrinsic dissolution rate) ([7]; pH 7.4 phosphate buffer): 1.1 × 10^−1 mg/min/cm^2 and 1.0 × 10^−1 mg/min/cm^2
- intrinsic dissolution rate compared with atrasentan parent ([7]; paired t-test, pH 2.0, 5.0, 7.4): statistically greater intrinsic dissolution rate

Compound: CCCCN(CCCC)C(=O)CN1C[C@H](c2ccc3c(c2)OCO3)[C@@H](C(=O)O)[C@@H]1c1ccc(OC)cc1 [Parent, Anhydrate, (2R,3R,4S)-4-(1,3-benzodioxol-5-yl)-1-[2-(dibutylamino)-2-oxoethyl]-2-(4-methoxyphenyl)pyaolidine-3-carboxylic acid]
- CRYSTAL MORPHOLOGY [1]: Needle

Compound: CCCCN(CCCC)C(=O)CN1C[C@H](c2ccc3c(c2)OCO3)[C@@H](C(=O)O)[C@@H]1c1ccc(OC)cc1.Cl
- CRYSTAL MORPHOLOGY [1]: Needle

Compound: CCCCN(CCCC)C(=O)CN1CC(c2ccc3c(c2)OCO3)C(C(=O)O)C1c1ccc(OC)cc1.Cl (stereo not drawn)
- CRYSTAL MORPHOLOGY [1]: Needle

Compound: CCCCN(CCCC)C(=O)CN1C[C@H](c2ccc3c(c2)OCO3)[C@@H](C(=O)O)[C@@H]1c1ccc(OC)cc1 [Hydrochloride]
- CRYSTAL MORPHOLOGY ([1]; listed as Hydrochloride (1:1 Stoichiometry), Crystalline Form II): Needle
- IDR (intrinsic dissolution rate) ([3]; [Cl−] 0.0 M): 1.4 × 10^−1 (n = 1) mg/min/cm^2
- IDR (intrinsic dissolution rate) ([3]; [Cl−] 0.017 M): 1.3 × 10^−1 (n = 1) mg/min/cm^2
- IDR (intrinsic dissolution rate) ([3]; [Cl−] 0.17 M): 4.2 × 10^−2 (n = 1) mg/min/cm^2
- linear regression intercept a of IDR = a + b × [Cl−] [3]: a2 = 0.1377
- linear regression slope b of IDR = a + b × [Cl−] [3]: b2 = −0.5609
- RECOVERED (%) [4]: 87.62% and 87.21% and 83.11%
- AVERAGE (%) recovered [4]: 85.98%
- AVERAGE % (NORMALIZED) [4]: 89.48%
- PARTICLE SIZE DISTRIBUTION D10 [5]: 6.0 μm
- PARTICLE SIZE DISTRIBUTION D50 [5]: 20 μm
- PARTICLE SIZE DISTRIBUTION D90 [5]: 86 μm
- MORPHOLOGY [5]: Needle
- BULK DENSITY [6]: 0.11 g/mL
- TAP DENSITY [6]: 0.20 g/mL

Compound: CCCCN(CCCC)C(=O)CN1C[C@H](c2ccc3c(c2)OCO3)[C@@H](C(=O)O)[C@@H]1c1ccc(OC)cc1 [Parent, (2R,3R,4S)-4-(1,3-benzodioxol-5-yl)-1-[2-(dibutylamino)-2-oxoethyl]-2-(4-methoxyphenyl)pyaolidine-3-carboxylic acid]
- CRYSTAL MORPHOLOGY ([1]; Hemi-hydrate): Prism
- RECOVERED (%) [4]: 93.76% and 91.62% and 89.37%
- AVERAGE (%) recovered [4]: 91.58%
- AVERAGE % (NORMALIZED) [4]: 89.56%
- IDR (intrinsic dissolution rate) ([7]; pH 2.0 phosphate buffer): 2.7 × 10^−2 (n = 1) mg/min/cm^2
- IDR (intrinsic dissolution rate) ([7]; pH 5.0 phosphate buffer): 5.1 × 10^−3 mg/min/cm^2 and 5.4 × 10^−3 mg/min/cm^2
- IDR (intrinsic dissolution rate) ([7]; pH 7.4 phosphate buffer): 3.6 × 10^−2 (n = 1) mg/min/cm^2

Compound: CCCCN(CCCC)C(=O)CN1CC(c2ccc3c(c2)OCO3)C(C(=O)O)C1c1ccc(OC)cc1.O=C(O)C(O)c1ccccc1 (stereo not drawn)
- CRYSTAL MORPHOLOGY [1]: Prism

Results, then the compound that gave them:

- CRYSTAL MORPHOLOGY [1]: Needle
Compound: CCCCN(CCCC)C(=O)CN1C[C@H](c2ccc3c(c2)OCO3)[C@@H](C(=O)O)[C@@H]1c1ccc(OC)cc1 [Parent, Quarter-hydrate, (2R,3R,4S)-4-(1,3-benzodioxol-5-yl)-1-[2-(dibutylamino)-2-oxoethyl]-2-(4-methoxyphenyl)pyaolidine-3-carboxylic acid]

- CRYSTAL MORPHOLOGY [1]: Prism
Compound: CCCCN(CCCC)C(=O)CN1CC(c2ccc3c(c2)OCO3)C(C(=O)O)C1c1ccc(OC)cc1.CCCCN(CCCC)C(=O)CN1CC(c2ccc3c(c2)OCO3)C(C(=O)O)C1c1ccc(OC)cc1.O=C(O)C(O)c1ccccc1 (stereo not drawn) [S-Mandelate (2:1 Stoichiometry), Hydrate]

- CRYSTAL MORPHOLOGY [1]: Bar
Compound: CCCCN.CCCCN(CCCC)C(=O)CN1CC(c2ccc3c(c2)OCO3)C(C(=O)O)C1c1ccc(OC)cc1 (stereo not drawn)
